ChEMBL document CHEMBL5257038, “Active Natural Product Scaffolds against Trypanosomatid Parasites: A Review” (J Nat Prod, 2018)
Positions of bridges follow the written chain, without caps; N, C: chain ends. Non-standard residues stand in square brackets, D forms with d. Residues, ends and D or L forms follow the SMILES beside them. ξ: configuration not given here. ξK = NCCCCC(N)C(=O)O

Columns and labels:
[1] = system: Trypanosoma cruzi; assay: Antitrypanosomal activity against epimastigote form of Trypanosoma cruzi assessed as reduction in parasite growth; type: functional, organism-based
[2] = system: Trypanosoma cruzi; assay: Antitrypanosomal activity against trypomastigote form of Trypanosoma cruzi assessed as reduction in parasite growth; type: functional, organism-based
[3] = system: Leishmania amazonensis; assay: Antileishmanial activity against Leishmania amazonensis promastigotes assessed as parasite growth inhibition; type: functional, organism-based
[4] = system: Leishmania amazonensis; assay: Antileishmanial activity against Leishmania amazonensis intracellular amastigotes assessed as parasite growth inhibition; type: functional, organism-based
[5] = Selectivity index, ratio of CC50 for cytotoxicity against mouse J774.G8 cells to IC50 for antileishmanial activity against Leishmania amazonensis promastigotes; type: toxicity, cell-based; settings: read-out: Ratio CC50/IC50
[6] = system: Trypanosoma brucei rhodesiense; assay: Antitrypanosomal activity against bloodstream form of Trypanosoma brucei rhodesiense assessed as parasite growth inhibition; type: functional, organism-based
[7] = system: Leishmania donovani; assay: Antileishmanial activity against amastigote form of Leishmania donovani assessed as parasite growth inhibition; type: functional, organism-based
[8] = system: Trypanosoma cruzi; assay: Antitrypanosomal activity against intracellular Trypanosoma cruzi amastigote assessed as reduction in parasite growth; type: functional, organism-based
[9] = Selectivity index, ratio of CC50 for cytotoxicity against rat L6 cells to IC50 for antitrypanosomal activity against bloodstream form of Trypanosoma brucei rhodesiense; type: toxicity, cell-based; settings: read-out: Ratio CC50/IC50
[10] = system: Trypanosoma cruzi; assay: Antitrypanosomal activity against Trypanosoma cruzi amastigote; type: functional, organism-based
[11] = Selectivity index, ratio of IC50 for cytotoxicity against African green monkey Vero cells to IC50 for antitrypanosomal activity against Trypanosoma cruzi amastigote; type: toxicity, cell-based; settings: read-out: Ratio IC50
[12] = system: Leishmania donovani; assay: Antileishmanial activity against Leishmania donovani intracellular amastigotes assessed as parasite growth inhibition; type: functional, organism-based
[13] = system: Trypanosoma brucei rhodesiense; assay: Antitrypanosomal activity against Trypanosoma brucei rhodesiense bloodstream form
[14] = system: Leishmania donovani; assay: Antileishmanial activity against Leishmania donovani promastigotes assessed as parasite growth inhibition; type: functional, organism-based
[15] = system: Trypanosoma brucei; assay: Antitrypanosomal activity against bloodstream form of Trypanosoma brucei assessed as parasite growth inhibition; type: functional, organism-based
[16] = Selectivity index, ratio of IC50 for cytotoxicity against mouse peritoneal macrophage cells to IC50 for antileishmanial activity against Leishmania donovani promastigotes; type: toxicity, cell-based; settings: read-out: Ratio IC50
[17] = Selectivity index, ratio of IC50 for cytotoxicity against mouse peritoneal macrophage cells to IC50 for antitrypanosomal activity against bloodstream form of Trypanosoma brucei; type: toxicity, cell-based; settings: read-out: Ratio IC50
[18] = Selectivity index, ratio of IC50 for cytotoxicity against rat L6 cells to IC50 for antileishmanial activity against amastigote form of Leishmania donovani; type: toxicity, cell-based; settings: read-out: Ratio IC50
[19] = Selectivity index, ratio of IC50 for cytotoxicity against rat L6 cells to IC50 for antitrypanosomal activity against bloodstream form of Trypanosoma brucei rhodesiense; type: toxicity, cell-based; settings: read-out: Ratio IC50
[20] = system: Leishmania donovani; assay: Antileishmanial activity against Leishmania donovani promastigotes infected in golden hamster assessed as reduction in parasite load in spleen at 3.5 mg/kg administered twice per week for 4 weeks relative to control; type: functional; parameters: scale not given: the % may be the effect or the level left
[21] = system: Leishmania mexicana; assay: Antileishmanial activity against Leishmania mexicana promastigotes assessed as parasite growth inhibition; type: functional, organism-based
[22] = system: Trypanosoma cruzi; assay: In vivo antitrypanosomal activity against Trypanosoma cruzi infected in mouse assessed as fold reduction in parasitemia measured upto 30 days; type: functional; settings: time <= 30 day
[23] = system: Trypanosoma cruzi; assay: In vivo antitrypanosomal activity against Trypanosoma cruzi infected in mouse assessed as survival rate measured upto 50 days relative to control; type: functional; settings: time <= 50 day
[24] = system: Trypanosoma brucei brucei; assay: Antitrypanosomal activity against bloodstream form of Trypanosoma brucei brucei assessed as reduction in parasite growth; type: functional, organism-based
[25] = Selectivity index, ratio of CC50 for cytotoxicity against HEK293T cells to EC50 for antitrypanosomal activity against bloodstream form of Trypanosoma brucei brucei; type: toxicity, cell-based; settings: human, read-out: Ratio CC50/EC50
[26] = Selectivity index, ratio of CC50 for cytotoxicity against human HepG2 cells to EC50 for antitrypanosomal activity against bloodstream form of Trypanosoma brucei brucei; type: toxicity, cell-based; settings: read-out: Ratio CC50/EC50
[27] = system: Trypanosoma cruzi (intracellular amastigotes); assay: Antiparasitic activity against Trypanosoma cruzi intracellular amastigotes assessed as reduction in cell viability at 50 uM relative to control
[28] = system: Trypanosoma cruzi (intracellular amastigotes); assay: as above; remark: listed apart in the source
[29] = system: Leishmania infantum; assay: Antileishmanial activity against amastigote stage of Leishmania infantum; type: functional, organism-based
[30] = Selectivity index, ratio of IC50 for cytotoxicity against human MRC5 cells to IC50 for antitrypanosomal activity against bloodstream form of Trypanosoma brucei; type: toxicity, cell-based; settings: read-out: Ratio IC50
[31] = Selectivity index, ratio of IC50 for cytotoxicity against human MRC5 cells to IC50 for antitrypanosomal activity against intracellular Trypanosoma cruzi amastigote; type: toxicity, cell-based; settings: read-out: Ratio IC50
[32] = Selectivity index, ratio of IC50 for cytotoxicity against human MRC5 cells to IC50 for antileishmanial activity against amastigote stage of Leishmania infantum; type: toxicity, cell-based; settings: read-out: Ratio IC50
[33] = Selectivity index, ratio of CC50 for cytotoxicity against rat L6 cells to IC50 for […] activity against amastigote form of Leishmania donovani; type: toxicity, cell-based; settings: read-out: Ratio CC50/IC50
[34] = system: Trypanosoma brucei brucei; assay: Antitrypanosomal activity against Trypanosoma brucei brucei; type: functional, organism-based
[35] = Selectivity index, ratio of IC50 for cytotoxicity against human T98G cells to IC50 for antitrypanosomal activity against Trypanosoma brucei brucei; type: toxicity, cell-based; settings: read-out: Ratio IC50

CC[C@H](C)[C@@H]1NC(=O)CNC(=O)[C@H](CCCNC(=N)N)NC(=O)[C@H](Cc2ccc(O)cc2)NC(=O)[C@@H]2CSSC[C@H](NC1=O)C(=O)N[C@@H](Cc1ccc(O)cc1)C(=O)N[C@@H](CCCNC(=N)N)C(=O)N[C@@H](CCCNC(=N)N)C(=O)N[C@H](C(=O)N[C@@H](CCCNC(=N)N)C(N)=O)CSSC[C@H](NC(=O)[C@H](Cc1c[nH]c3ccccc13)NC(=O)C(N)CCCCN)C(=O)N[C@@H](Cc1ccccc1)C(=O)N[C@@H](CCCNC(=N)N)C(=O)N[C@@H](C(C)C)C(=O)N2 (some centres undefined) (H-[ξK]WCFRVCYRGICYRRCR-NH2; disulfide 3-16, 7-12)
EC50 [1]: 47.9 µM | EC50 [2]: 9.3 µM

C=C1CC[C@@H](OC(C)=O)[C@H]2CC=C3[C@](C)(CC[C@]3(O)C(C)C)C[C@]12O
EC50 [3]: 5.5 µM | EC50 [4]: 18 µM | selectivity ratio [5]: 93

Nc1nc([C@H]2[C@H](CNC(=O)c3cc(Br)c[nH]3)[C@@H](CNC(=O)c3cc(Br)c[nH]3)[C@@H]2c2c[nH]c(N)n2)c[nH]1 [SCEPTRIN]
EC50 [6]: 15.7 µM | EC50 [7]: 83 µM | EC50 [8]: 96 µM | selectivity ratio [9]: > 10

COc1cc2c(c3oc4cccc(O)c4c(=O)c13)[C@@H]1C=CO[C@@H]1O2 [STERIGMATOCYSTIN]
EC50 [10]: 0.13 µM | selectivity ratio [11]: 0.46

C=C(C)[C@H]1[C@H]2[C@@H](OC(C)=O)C[C@@H](C)[C@@H]3C(OC)C=C(C)[C@@]213 (some centres undefined)
EC50 [12]: 5 µM

Cn1c2nc3ccccc3c-2cc2ccccc21 [NEOCRYPTOLEPINE]
EC50 [7]: 49.5 µM | EC50 ([10]; Trypanosoma cruzi): 2 µM | EC50 [13]: 2.2 µM

C[n+]1c2ccccc2cc2[n-]c3ccccc3c21 [CRYPTOLEPINE]
EC50 [14]: 1.6 µM | EC50 [15]: 0.3 µM | selectivity ratio [16]: 0.7 | selectivity ratio [17]: 29.3

O=c1cc(-c2ccc(O)c(O)c2)oc2cc(O)cc(O)c12 [LUTEOLIN]
EC50 [6]: 14.1 µM | EC50 [7]: 2.8 µM | selectivity ratio [18]: 12 | selectivity ratio [19]: 3 | Activity [20]: 80%

C=C1C(=O)O[C@@H]2[C@H]1CC[C@H](C)[C@]1(CCC(=O)O1)[C@@]2(C)O [PSILOSTACHYIN A]
EC50 [1]: 4.3 µM | EC50 [2]: 12.5 µM | EC50 [21]: 0.42 µM | fold change (FC) [22]: 1.5 | Survival [23]: 100%

C=C1CO[C@H]2/C=C(\C)CC[C@@H]3O[C@@]3(C)CC/C=C(\C)CC[C@@]12O
EC50 [24]: 5.3 µM | selectivity ratio [25]: > 20 | selectivity ratio [26]: > 20 | Activity [27]: 15.2% | Activity [28]: 15.2%

COc1c(O)cc2oc3cc(O)c(CC=C(C)C)c(O)c3c(=O)c2c1CC=C(C)C [MANGOSTIN]
EC50 [8]: 8.9 µM | EC50 [15]: 7.9 µM | EC50 [29]: 8 µM | selectivity ratio [30]: 0.95 | selectivity ratio [31]: 0.84 | selectivity ratio [32]: 0.93

NC1=N[C@]2([C@H](O)N1)[C@@H](Cl)[C@H](CCl)[C@H]1CN3C(=O)c4cc(Br)c(Br)n4[C@@H]4NC(N)=N[C@@]43[C@@H]12
EC50 [6]: 0.8 µM | EC50 [7]: 1.9 µM | EC50 [8]: 120 µM | selectivity ratio [9]: 10 | selectivity ratio [33]: 4

CC1=C\C=C\C[C@H](C)NC(=O)/C=C/C=C/C=C/[C@H](C)[C@@H](O)[C@H](O)[C@H](O)C[C@@H](O)/C=C\C=C\C(C)=C\1
EC50 [34]: 0.8 µM | selectivity ratio [35]: 83

CC1=C\C=C\C[C@H](C)NC(=O)/C=C/C=C/C=C/[C@H](C)[C@@H](O)[C@H](O)[C@H](O)C[C@@H](O)\C=C\C=C\C(C)=C\1
EC50 [34]: 6.1 µM | selectivity ratio [35]: 11
